{"source": "paper PMC7688046", "about": "(ACS Pharmacology & Translational Science, 2020)", "key": {"[1]": {"target": "SARS-CoV-2 spike protein RBD (RBD-Fc) binding to human ACE2 (ACE2-His-Avi) (Homo sapiens, UniProt Q9BYF1)", "sequence (Q9BYF1 18-740)": "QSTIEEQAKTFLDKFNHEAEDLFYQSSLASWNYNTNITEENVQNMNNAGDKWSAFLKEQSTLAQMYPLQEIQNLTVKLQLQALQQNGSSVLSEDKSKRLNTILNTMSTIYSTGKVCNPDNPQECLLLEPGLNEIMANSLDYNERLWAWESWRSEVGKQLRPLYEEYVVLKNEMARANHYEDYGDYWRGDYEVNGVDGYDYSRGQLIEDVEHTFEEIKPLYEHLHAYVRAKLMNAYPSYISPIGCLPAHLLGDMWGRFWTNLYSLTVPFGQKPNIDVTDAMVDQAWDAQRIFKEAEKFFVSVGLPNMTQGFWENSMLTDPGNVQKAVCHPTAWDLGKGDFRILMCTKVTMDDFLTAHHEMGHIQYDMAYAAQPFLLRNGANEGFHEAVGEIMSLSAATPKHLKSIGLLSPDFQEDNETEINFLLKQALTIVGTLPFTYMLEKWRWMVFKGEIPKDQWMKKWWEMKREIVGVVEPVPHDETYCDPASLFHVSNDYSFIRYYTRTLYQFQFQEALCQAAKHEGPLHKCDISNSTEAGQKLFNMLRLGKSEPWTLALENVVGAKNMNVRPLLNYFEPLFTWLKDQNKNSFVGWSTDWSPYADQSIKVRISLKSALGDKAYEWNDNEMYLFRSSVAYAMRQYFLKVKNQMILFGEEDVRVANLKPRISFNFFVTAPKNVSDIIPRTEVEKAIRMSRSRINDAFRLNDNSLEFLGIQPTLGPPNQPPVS", "assay": "biochemical", "design": "species or system human ACE2 / SARS-CoV-2 spike"}, "[2]": {"system": "cytopathic effects (CPE)", "settings": "at current writing; ref NCATS OpenData Portal; cited from earlier work"}, "[3]": {"system": "biotinylated rabbit IgG (Fc-protein A and streptavidin–biotin interactions)", "assay": "Biotin-IgG counterassay", "settings": "cherry-pick hit confirmation"}, "[4]": {"system": "ACE2", "settings": "at current writing; ref NCATS OpenData Portal; cited from earlier work"}, "[5]": {"system": "streptavidin donor beads / biotin-BSA acceptor beads", "settings": "primary counterscreen"}, "[6]": {"target": "RBD-Fc interaction with ACE2-His-Avi (Homo sapiens, UniProt Q9BYF1)", "sequence (Q9BYF1 18-740)": "as above", "assay_type": "binding, human ACE2 / SARS-CoV-2 spike"}}, "data": [{"compound": "O=C(O[C@@H]1O[C@@H]2COC(=O)c3cc(O)c(O)c(O)c3-c3c(cc(O)c(O)c3O)C(=O)O[C@H]([C@H]1O)[C@@H]2O)c1cc(O)c(O)c(O)c1", "note": "[Corilagin]", "values": [{"measurement": "IC50", "setting": "[1]", "value": 5.5, "unit": "µM"}, {"measurement": "activity in blocking cytopathic effects (CPE)", "setting": "[2]", "value": "no activity"}, {"measurement": "activity in biotin-IgG counter assay", "setting": "[3]", "value": "not the biotin-IgG counter assay"}, {"measurement": "activity in the ACE2 enzymatic assay", "setting": "[4]", "value": "weak activity"}]}, {"compound": "CC(C)(O/N=C(\\C(=O)N[C@@H]1C(=O)N2C(C(=O)[O-])=C(C[n+]3ccccc3)CS[C@H]12)c1csc(N)n1)C(=O)O", "note": "[ceftazidime]", "values": [{"measurement": "ACE2–RBD binding inhibition in the primary AlphaLISA screen", "setting": "[1]", "value": "no significant activity"}, {"measurement": "activity in the TruHits counterscreen", "setting": "[5]", "value": "no significant activity"}]}, {"compound": "CCOC(=O)[C@H](CCc1ccccc1)N[C@@H](C)C(=O)N1CCC[C@H]1C(=O)O", "note": "[enalapril]", "values": [{"measurement": "ACE2–RBD binding inhibition in the primary AlphaLISA screen", "setting": "[1]", "value": "none showed ACE2–RBD binding inhibition"}]}, {"compound": "NCCCC[C@H](N[C@@H](CCc1ccccc1)C(=O)O)C(=O)N1CCC[C@H]1C(=O)O", "note": "[lisinopril]", "values": [{"measurement": "ACE2–RBD binding inhibition in the primary AlphaLISA screen", "setting": "[1]", "value": "none showed ACE2–RBD binding inhibition"}]}, {"compound": "CCOC(=O)[C@H](CCc1ccccc1)N[C@@H](C)C(=O)N1Cc2cc(OC)c(OC)cc2C[C@H]1C(=O)O", "note": "[moexipril]", "values": [{"measurement": "ACE2–RBD binding inhibition in the primary AlphaLISA screen", "setting": "[1]", "value": "none showed ACE2–RBD binding inhibition"}]}, {"compound": "CCC(CC)COC(=O)[C@H](C)N[P@](=O)(OC[C@H]1O[C@@](C#N)(c2ccc3c(N)ncnn23)[C@H](O)[C@@H]1O)Oc1ccccc1", "note": "[remdesivir]", "values": [{"measurement": "ACE2–RBD binding inhibition in the primary AlphaLISA screen", "setting": "[1]", "value": "no significant activity"}, {"measurement": "activity in the TruHits counterscreen", "setting": "[5]", "value": "no significant activity"}]}, {"compound": "ACE2-His", "values": [{"measurement": "competition for ACE2–RBD binding, AlphaLISA signal", "setting": "[6]", "value": "dose-dependent signal loss"}]}]}
